Experimental findings from patent publication US11717536B2, “Treatment for periodontitis” (THE UNIVERSITY OF MELBOURNE, priority 2017, dated 2023) are described below.

“Also recorded” adds a separate entry of the source. Marks after values point to notes of the source that are not given here. Bounds are passed on as bounds.

The subject of experiment [1] is Streptococcus sanguinis (NCTC 7863). The experiment in a line: Six species polymicrobial biofilm in constant-depth film fermenter, species composition: S. sanguinis. The experiment is classed as cell-based. As for the experimental part:
(§1) To model supragingival plaque six representative oral bacterial species, Streptococcus sanguinis (NCTC 7863), Streptococcus mutans Ingbritt, Actinomyces naeslundii (NCTC 10301), Veillonella parvula (ATCC 17745), Lactobacillus casei (NCDO 161) and Fusobacterium nucleatum (ATCC 10953) (Table 5) were cultured as a polymicrobial biofilm on a human enamel substratum in a constant-depth film fermenter (CDFF; Cardiff University, UK). The CDFF was housed in a 37° C. incubator under anaerobic conditions which were maintained by a constant flow of 5% CO2 in N2 at 1 L/h. The CDFF contained 15 removable polytetrafluoroethylene (PTFE) pans on a circular platform that was rotated at a constant speed of three rpm. The biofilms were grown on three enamel blocks (see below) in each PTFE pan using an artificial saliva medium (ASM, 2.5 g/L mucin type II (porcine, gastric, Sigma), 2.0 g/L bacteriological peptone (Oxoid), 2.0 g/L tryptone (Oxoid), 1.0 g/L yeast extract (Oxoid), 0.35 g/L NaCl, 0.2 g/L KCl, 0.2 mg/L vitamin K, 1 mg/L haemin and 0.1 g/L cysteine hydrochloride) at a constant flow rate of 30 mL/h. Prior to inoculation, the CDFF pan surfaces were conditioned for 24 h with ASM at a flow rate of 10 mL/h (McBain et al (2003) J Appl Microbiol. 94(4):655-66). In order to mimic in vivo bacterial growth conditions in the oral cavity with dietary sugar intake and to provide a high cariogenic challenge, a 1% (w/v) sucrose solution in ASM was pumped into the CDFF four times a day at four hourly intervals with a flow rate of 30 mL/h for 10 min.
(§2) Three treatments were applied to the polymicrobial biofilms: 290 ppm fluoride with 220 ppm fluoride as SnF2 and 70 ppm fluoride as NaF (referred to as SnF2), 2% CPP-ACP and 2% CPP-ACP-SnF2. These treatments were compared with the control in which the test solution was replaced with ASM. Each treatment was applied using two 10 min pulses of the test solution in ASM with a flow rate of 30 mL/h. The first pulse started 30 min prior to the first sucrose pulse of the morning and the second started 3 h 30 min after the final sucrose pulse of the day.
(§3) On day 6, 12 and 19 after inoculation four pans were removed aseptically from the CDFF and replaced with blank sterile pans. Enamel blocks from the pans were removed for bacterial enumeration and transverse microradiography.
(§4) Planktonic and loosely attached bacterial cells were firstly removed from the enamel blocks by light washing with 100 μL ASM. […]
(§5) For each timepoint, DNA was extracted separately from 8-9 enamel blocks using PowerLyzer® PowerSoil® DNA Isolation Kits (MoBio Laboratories) following the manufacturers “Vacuum Protocol” with a Precellys® bead homogeniser (Bertin Technologies). Samples were quantified using a Qubit™ dsDNA HS assay kit (Life Technologies) before being stored at −80° C. […]

The test system of the next experiment is supragingival plaque. The experiment in a line: Clinical trial: microbial composition of supragingival plaque (16S rRNA gene sequencing), whole community. It counts as in vivo, human. The text has this: Following the completion of the examination and supragingival plaque collection, participants received a supragingival scaling, clean and prophylaxis of all their teeth. At the completion of the last examination for leg 3, each participant received a professional fluoride treatment.
Participants had all supragingival plaque collected from the buccal surfaces of their maxillary molars (teeth 17, 16, 26 & 27) with a sterile scaling instrument. The plaque samples from each tooth were placed in separate sterile tubes, to give four samples per participant.
Genomic DNA was extracted from the plaque using a combination of mechanical disruption of the cells via a Precellys homogeniser and the chemical extraction and purification of the genomic DNA via the PowerLyzer PowerSoil DNA Isolation Kit (MoBio). Quantitation of the extracted DNA was achieved using a Qubit dsDNA High Sensitivity Assay kit (ThermoFisher), before 5 ng DNA was used as template in a PCR reaction that amplified the V4 variable region of the 16S ribosomal RNA gene and individually barcoded the PCR product from each sample. The barcoded DNA was then sequenced using an Ion Torrent Personal Genome machine and Torrent Suite™ Software (ThermoFisher).
Analysis of the resulting sequence of the 16S ribosomal RNA gene enabled identification of the bacterial population present in each sample, down to the species level. […]
The individual 16S rDNA sequences produced for each sample were used to both classify the microbial lineages present (grouped as species level taxa) and determine the abundances of each taxon. Differences in the bacterial community over time was determined by measuring the changes in the relative taxon abundances for each individual.

The subject of experiment [2] is Lactobacillus casei (NCDO 161). Nature of the experiment: Six species polymicrobial biofilm in constant-depth film fermenter, species composition: L. casei. It counts as cell-based. Here is the method: as §1, §2, §3, §4, §5
For experiment [3], the system named is Streptococcus mutans Ingbritt. The experiment in a line: Six species polymicrobial biofilm in constant-depth film fermenter, species composition: S. mutans. The experiment is classed as cell-based. As for the experimental part: as §1
(§6) Three treatments were applied to the polymicrobial biofilms: 290 ppm fluoride with 220 ppm fluoride as SnF2 and 70 ppm fluoride as NaF (referred to as SnF2), 2% CPP-ACP and 2% CPP-ACP-SnF2. […]
as §5

Experiment [4] deals with Actinomyces naeslundii (NCTC 10301). Nature of the experiment: Six species polymicrobial biofilm in constant-depth film fermenter, species composition: A. naeslundii. The note with it: 19 days; mean ± standard deviation; n = 5-21. It counts as cell-based. Here is the method:
as §1, §6, §5

[5] abbreviates: 19 days, mean ± standard deviation, n = 5-21.

“Casein phosphopeptide-amorphous calcium phosphate [CPP-ACP]”: the “S. sanguinis as a percentage of total bacteria in the biofilm” value in experiment [1] (setting [5]) is 19.85 ± 2.86^bc %. In experiment [1] (twice daily treatment, day 19), the “change in abundance of S. sanguinis relative to the control (in words)” value is recorded as “significantly increased; also recorded: reproducible increases”. Also, the “increases in commensal/beneficial species at the 56.4 mg dose compared with the 18.8 mg dose” value in the experiment with supragingival plaque (56.4 mg CPP-ACP gum, 20 min six times per day, 14 days) is given as “significantly greater”. Besides, in the experiment on supragingival plaque (CPP-ACP gum, 14 days, vs no treatment), the “proportion of pathogenic species (pathobionts)” value is given as “concomitant reduction”. Moreover, the “proportion of the health-associated symbionts” value in the experiment with supragingival plaque (CPP-ACP treatment, randomised controlled clinical study) is recorded as “significant increase”. Besides, the “L. casei as a percentage of total bacteria in the biofilm” value in experiment [2] (setting [5]) is recorded as 0.38 ± 0.23^ac %. Besides, the “change in abundance of L. casei relative to the control (in words)” value in experiment [2] (twice daily treatment, day 19) is “dramatically decreased; also recorded: suppressed the emergence”. In addition, in experiment [2] (twice daily treatment, consistent), the “decrease in relative abundance of L. casei compared with the control” value was more than 95%. In addition, the “S. mutans as a percentage of total bacteria in the biofilm” value in experiment [3] (setting [5]) is listed as 58.70 ± 5.47^b %. In experiment [3] (twice daily treatment, day 19), the “change in abundance of S. mutans relative to the control (in words)” value is listed as “remained relatively constant”. The “A. naeslundii as a percentage of total bacteria in the biofilm” value in experiment [4] is listed as 11.93 ± 2.34^b %.
